Measurements: EP4726029A1, “ADIPOCYTE GROWTH INHIBITOR” (Watanabe Oyster Laboratory Co., Ltd., priority 2023, dated 2024)

Columns and labels:
Assay type in all cases: cell-based, mouse
3T3-L1 adipocytes [1] = assay: Adipogenesis assay with inhibitors of intracellular signaling pathways (AdipoRed Assay Reagent)
Method: In yet another experiment, to search for the involvement of intracellular signaling factors, the culture fluid was substituted with a culture fluid containing DMEM, which contained 10% FBS and insulin (10 µg/ml), and a vehicle (1% ethanol) or DHMBA (1 or 10 µM) two days after the differentiation culture. The cells were cultured for another two days in a culture fluid containing signaling inhibitory factors, such as genistein (1 or 10 µM), Wortmannin (10 or 100 nM), PD98059 (1 or 10 µM), or Bay 11-7082 (1 or 10 nM). After the cell culture, the amount of intracellular lipid (triglyceride) formation was quantified using AdipoRed Assay Reagent (Lonza, Walkersville, MD, USA) [19 to 21]. Fluorescence was measured at an excitation of 485 nm and an emission of 570 nm using a 96-well plate reader (µQuant, Bio-Tek Instruments).

3T3-L1 preadipocytes [2] = assay: Cell death assay (number of cells after sub-confluence); conditions: 1000 µM, another two days after sub-confluence (Fig. 2C)
Method: In an experiment to measure cell death, 3T3-L1 preadipocytes (1×10^5/ml per well of a 24-well plate) were cultured for three days in a DMEM culture fluid containing 10% BCS and 1% P/S. The cells that reached sub-confluence were cultured for another 48 hours in the presence of a vehicle (1% ethanol as the final concentration) or DHMBA (0.1, 1, 10, 100, or 1000 µM) to examine the variation in the number of cells.
(§1) After the culture, adhering cells were separated from each well by adding an aseptic solution containing 0.05% trypsin and EDTA (0.1 ml per well) in PBS (Thermo Fisher Scientific, Waltham, MA, USA) not containing Ca^2+/Mg^2+ and incubating the cells for two minutes. Afterward, 0.9 ml of DMEM containing 10% FBS was added to each well to prepare cell suspensions. In order to measure the number of living cells, a medium (0.1 ml) containing suspension cells was mixed with 0.1 ml of 0.5% trypan blue staining solution. The living cells were counted under a microscope (Olympus MTV-3) using a cell counter (Line Seiki H-102P, Tokyo, Japan) and a hemocytometer (Sigma-Aldrich, St. Louis, Missouri). Two counts were averaged in each measurement. The number of cells was shown as the number per well of a culture plate.

3T3-L1 preadipocytes [3] = assay: Number of cells in the differentiation process; conditions: 1 or 10 µM
Method: (§2) In order to understand the influence of DHMBA on the differentiation of 3T3-L1 preadipocytes, 3T3-L1 preadipocytes (5×10^4 cells/ml per well of a 24-well plate) were cultured for three days, at which point they reached sub-confluence, in 10% bovine calf serum (BCS). After the cells reached sub-confluence (on day 0), the culture fluid was changed to a DMEM differentiation-inducing culture fluid containing 10% FBS, 1% P/S, 0.5 mM IBMX, 1 µM dexamethasone, and insulin (10 µg/ml), and the cells were cultured for another two days. Two days later, to promote adipogenesis, the culture fluid was replaced with a fresh differentiation culture fluid of DMEM containing 10% FBS and insulin (10 µg/ml), and the cells were cultured for another two days.
First, to quantify the effect of DHMBA on the number of cells, a vehicle (1% ethanol as the final concentration) or DHMBA (1 or 10 µM) was added to the differentiation-inducing culture fluid on day 0 of differentiation starting culture or after two days. After zero to two days of the differentiation culture or after two to four days of the culture, the number of cells adhered to a culture dish was measured as described in the previous section.

3T3-L1 adipocytes [4] = assay: Fat accumulation assay (Oil Red O staining); conditions: 0.1, 1, 10, or 100 µM
Method: as §2, with “Two days later, to promote adipogenesis, the culture fluid was replaced with a fresh differentiation culture fluid of DMEM containing 10% FBS and insulin (10 µg/ml), and the cells were cultured for another two days.” left out
In an additional experiment to understand the effect of DHMBA on the content of lipids in 3T3-L1 adipocytes, a vehicle (1% ethanol as the final concentration) or DHMBA (0.1, 1, 10, or 100 µM) was included in the differentiation-inducing culture fluid to culture the cells from day 0 of the differentiation-inducing culture to four days later. In order to quantify the lipid content (triglycerides) after the cell culture, the cells in the 24-well plate were gently washed twice with PBS and fixed with 4% formaldehyde dissolved in PBS for 30 minutes. […] Furthermore, in order to quantify the lipid content, the Oil Red stain was extracted with isopropanol. […] The eluate was used to measure the absorbance at 510 nm with a spectrophotometer (µQuant, Bio-Tek Instruments).

phosphorylated MAPK = assay: Western blotting of protein level in adipocytes; conditions: DHMBA 10 µM, day 2 to 4 of differentiation (Fig. 7)
Method: (§3) 3T3-L1 preadipocytes (1×10^6 cells/100 mm dish used, in 10 ml of culture fluid) were cultured for three days, at which point they reached sub-confluence, in DMEM containing 10% BCS and 1% P/S. Then, the cells were cultured for two days in a DMEM differentiation culture fluid containing 10% FBS, 1% P/S, 0.5 mM IBMX, and 1 µM dexamethasone. […] After the culture, the culture dish was washed three times with cold PBS (10 ml) to eliminate floating cells and dead cells, and adhering cells were scraped using a cell lysis solution containing protease and protein phosphatase inhibitors (Roche Diagnostics, Indianapolis, IN, USA). Next, the cell lysates were centrifuged for 10 minutes at 17,000 × g at 4°C. The concentration of proteins in the supernatant was quantified using Bio-Rad Protein Assay Dye (Bio-Rad Laboratories, Inc., Hercules, CA, USA) with bovine serum albumin as a standard. The extracted protein samples were stored at -80°C until they were used.
(§4) As indicated in the previous invention, a sample of 40 micrograms of supernatant proteins per lane was separated by SDS polyacrylamide gel electrophoresis (SDS-PAGE, 12%) and transferred to a PVDF membrane. Specific antibodies for target proteins, such as PPARγ (C26H12) (catalog No. 2435, rabbit antibody), C/EBPα (catalog No. 2295, rabbit), phosphoinositide 3-kinase p110α (PI3K; catalog No. 4255), Akt (catalog No. 9272, rabbit antibody), mitogen-activated protein kinase (MAPK; catalog No. 4695, rabbit antibody), phosphorylated MAPK (catalog No. […]) 4370, rabbit antibody), mechanistic target of rapamycin (mTOR, catalog No. 4517, mouse antibody), NF-κB p65 (catalog No. 3034, rabbit antibody), and β-actin (catalog No. 3700, rabbit antibody), were obtained from Cell Signaling Technology (Danvers, MA, USA). The PVDF membrane was incubated overnight at 4°C using the above protein antibodies for immunoblotting.
(§5) After the incubation, the PVDF membrane was incubated at room temperature for 60 minutes in a horseradish peroxidase-conjugated secondary antibody (Santa Cruz Biotechnology, Inc., mouse sc-2005 or rabbit sc-2305; 1:1,000 dilution). Protein bands transferred to the PVDF membrane were detected on an X-ray film using a chemiluminescent substrate (catalog No. 34577, Thermo Scientific, Rockford, IL, USA). Four independent experiments were conducted for data, their films were scanned with an Epson Perfection 1660 photo scanner, and the bands were quantified using ImageJ2 software (National Institutes of Health, Bethesda, MD, USA).

mTOR = assay: Western blotting of protein level in adipocytes; conditions: DHMBA 10 µM, day 2 to 4 of differentiation (Fig. 7)
Method: as §3, §4, §5

C/EBPα = assay: Western blotting of protein level in adipocytes; conditions: DHMBA 10 µM, day 2 to 4 of differentiation (Fig. 7)
Method: as §3, §4, §5

NF-κB p65 = assay: Western blotting of protein level in adipocytes; conditions: DHMBA 10 µM, day 2 to 4 of differentiation (Fig. 7)
Method: as §3, §4, §5

PI3 kinase 100α = assay: Western blotting of protein level in adipocytes; conditions: DHMBA 10 µM, day 2 to 4 of differentiation (Fig. 7)
Method: as §3, §4, §5

PPARγ = assay: Western blotting of protein level in adipocytes; conditions: DHMBA 10 µM, day 2 to 4 of differentiation (Fig. 7)
Method: as §3, §4, §5

MAPK = assay: Western blotting of protein level in adipocytes; conditions: DHMBA 10 µM, day 2 to 4 of differentiation (Fig. 7)
Method: as §3, §4, §5

Akt = assay: Western blotting of protein level in adipocytes; conditions: DHMBA 10 µM, day 2 to 4 of differentiation (Fig. 7)
Method: as §3, §4, §5

3T3-L1 adipocytes [5] = assay: Adipogenesis assay (AdipoRed Assay Reagent); conditions: 1, 10, or 100 µM
Method: 3T3-L1 preadipocytes (10^4 cells/0.2 ml per well of a 96-well plate) were cultured for three days, at which point they reached sub-confluence, in DMEM containing 10% BCS and 1% P/S. After the sub-confluence (on day 0), the cells were cultured in a differentiation-inducing culture fluid containing 10% FBS, 1% P/S, 0.5 mM IBMX, and 1 µM dexamethasone with the inclusion of a vehicle (1% ethanol as the final concentration) or DHMBA (0.1, 1, 10, or 100 µM). Two days later, the culture fluid was replaced with a DMEM culture fluid containing insulin (10 µg/ml) without containing 10% FBS or DHMBA, and then, the cells were cultured for another two days.
In another experiment, the cells were cultured in a differentiation culture fluid not containing DHMBA on day 0 of differentiation-inducing culture. Two days later, the culture fluid was replaced with a DMEM culture fluid containing 10% FBS and insulin (10 µg/ml) that contained any of a vehicle (1% ethanol as the final concentration) and DHMBA (0.1, 1, 10, or 100 µM), and then, the cells were cultured for another two days.

3T3-L1 preadipocytes [6] = assay: Cell proliferation assay (count of living cells, trypan blue)
Method: […] Furthermore, in an experiment to measure cell proliferation, 3T3-L1 preadipocytes (1 × 10^5/ml per well of a 24-well plate) were cultured for three days in a culture fluid containing a vehicle (1% ethanol as the final concentration) or DHMBA (0.1, 1, 10, 100, or 1000 µM).
as §1

Cc1ccc(S(=O)(=O)C=CC#N)cc1 [Bay 11-7082, reference compound]
adipogenesis (3T3-L1 adipocytes [1]; Bay 11-7082 1 or 10 nM (Fig. 6D)): inhibited

COc1c(O)cc(CO)cc1O [DHMBA, 3,5-dihydroxy-4-methoxybenzyl alcohol]
number of cells (cell death) (3T3-L1 preadipocytes [2]): reduced
number of cells (3T3-L1 preadipocytes [3]; day 0 to 2 in culture fluid with differentiation-inducing factors (Fig. 3B)): not varied
number of cells (3T3-L1 preadipocytes [3]; day 2 to 4 in culture fluid containing insulin (Fig. 3C)): not varied
lipid accumulation (Oil Red O stained images) (3T3-L1 adipocytes [4]; on day 0 and after two days of differentiation culture (Fig. 4A)): reduced
lipid content in the cells (absorbance at 510 nm) (3T3-L1 adipocytes [4]; on day 0 and after two days of differentiation culture (Fig. 4B)): decrease
level of phosphorylated MAPK (phosphorylated MAPK): reduction
level of mTOR (mTOR): reduction
level of C/EBPα (C/EBPα): reduced
level of NF-κB p65 (NF-κB p65): reduced
level of PI3 kinase 100α (PI3 kinase 100α): reduction
level of PPARγ (PPARγ): reduced
level of MAPK (MAPK): reduction
level of Akt (Akt): reduction
adipogenesis (3T3-L1 adipocytes [5]; two to four days after the differentiation, late stage (Fig. 5C)): suppression
adipogenesis (3T3-L1 adipocytes [5]; zero to four days after the differentiation (Fig. 5A)): suppressed
adipogenesis (3T3-L1 adipocytes [5]; zero to two days after the differentiation (Fig. 5B)): suppression
inhibition of adipogenesis (3T3-L1 adipocytes [1]; DHMBA 1 or 10 µM in the presence of Bay 11-7082 1 or 10 nM (Fig. 6D)): further enhanced
inhibition of adipogenesis (3T3-L1 adipocytes [1]; DHMBA 1 or 10 µM in the presence of PD98059 1 or 10 µM (Fig. 6C)): further enhanced
inhibition of adipogenesis (3T3-L1 adipocytes [1]; DHMBA 1 or 10 µM in the presence of Wortmannin 10 or 100 nM (Fig. 6B)): further enhanced
adipogenesis (3T3-L1 adipocytes [1]; DHMBA 1 or 10 µM in the presence of genistein (Fig. 6A)): inhibited
Cell proliferation (3T3-L1 preadipocytes [6]; DHMBA 10 µM, culture for three to five days (Fig. 2A)): suppressed
Cell proliferation (3T3-L1 preadipocytes [6]; cultured for three days, concentrations ranging from 1 µM to 1000 µM (Fig. 2B)): suppressed

COc1cccc(-c2cc(=O)c3ccccc3o2)c1N [PD98059, reference compound]
adipogenesis (3T3-L1 adipocytes [1]; PD98059 1 or 10 µM (Fig. 6C)): inhibited

COC[C@H]1OC(=O)c2coc3c2[C@@]1(C)C1=C(C3=O)[C@@H]2CCC(=O)[C@@]2(C)C[C@H]1OC(C)=O [Wortmannin, reference compound]
adipogenesis (3T3-L1 adipocytes [1]): inhibited

O=c1c(-c2ccc(O)cc2)coc2cc(O)cc(O)c12 [genistein, reference compound]
lipogenesis (3T3-L1 adipocytes [1]; genistein 1 or 10 µM alone, two days from day 2 of differentiation (Fig. 6A)): not altered
